Read-outs that look alike come from different tables or passages of the source.

Experiment [1] addresses human Cereblon WT GST-tagged protein (Homo sapiens (Human), UniProt Q96SW2). The experiment is described as follows: CRBN binding, HTRF (CEREBLON BINDING kit). On the procedure:
Determination of CRBN-Binding Affinity of Compounds
The CEREBLON BINDING kits (specification: 10,000 tests; product number: Catalog #64BDCRBNPEH; CISBIO company) was used to determine the CRBN binding ability of the compounds to be tested through a HTRF method (homogeneous time-resolved fluorescence). The specific methods are as follows: • 1. […] Then, 2.5 μL of (human Cereblon WT GST-tagged protein) solution was added to each well. Finally, 5 μL of the uniformly mixed thalidomide-Red reagent and GST Eu antibody working solution were added to each of the above wells. […] The blank control wells were sequentially added with 2.5 μL of diluent #9 (1×) solution, 2.5 μL of ligand binding buffer, and 5 μL of uniformly mixed thalidomide-Red reagent and GST Eu antibody working solution. • 4. […] The corresponding CRBN binding inhibition rate was calculated using the following method: […]
(In general: Time-resolved FRET reads energy transfer from a long-lived donor to a nearby acceptor.)

Experiment [2] has as its system WSU-DLCL2. The experiment is described as follows: CCK-8 tumor cell proliferation, WSU-DLCL2. To be noted: read-out: IC50 for inhibiting the proliferation of tumor cells, WSU-DLCL2. The format is cell-based, Human. On the procedure: (§1) Determination of half inhibitory concentration (IC50) of the compounds against tumor cells:
(§2) The tumor cells used herein were cultured in a cell culture medium listed in table 6 at 37° C. in an incubator with 5% CO2.
(§3) After the cells were treated with the compounds of the present disclosure for a period of time (the treatment times listed in Table 7), the cell viability detection reagent was added to the culture medium for cell viability assessment according to the instructions provided with the CCK-8 kit. […] The growth inhibition of the compounds of the present disclosure on cells was plotted by Prism Graphpad software, and the IC50 values of the compounds of the present disclosure were calculated therefrom.

Experiment [3] concerns MGC80-3. The experiment is described as follows: CCK-8 tumor cell proliferation, MGC80-3. The format is cell-based, Human. To be noted: read-out: IC50 for inhibiting the proliferation of tumor cells, MGC80-3. The procedure:
as §1
(§4) The tumor cells used herein were cultured in a cell culture medium listed in table 6 at 37° C. in an incubator with 5% CO2. Prior to experimentation, all cells used were correctly identified by STR profiling, and tested negative for mycoplasma through routine screenings.
(§5) IC50 values of the compounds of the present disclosure (including the compounds in Table 4 and compounds of examples 1-72) were measured using the Meilun Cell Counting Kit-S kit from Dalian Meilun Biotech Co., Ltd. Assay details are as follows: tumor cells were seeded in a 96-well plate at a density listed in Table 7. After 24 h, 100 μL of the inoculated cells were treated with 0.5 μL of the compounds of the present disclosure (including the compounds in Table 4 and compounds of examples 1-72) at 10 different successively decreasing concentrations (starting at the highest concentration of 10 μM; 5-fold serial dilutions). After the cells were treated with the compounds of the present disclosure for a period of time (the treatment times listed in Table 7), the cell viability detection reagent was added to the culture medium for cell viability assessment according to the instructions provided with the CCK-8 kit. […] The growth inhibition of the compounds of the present disclosure on cells was plotted by Prism Graphpad software, and the IC50 values of the compounds of the present disclosure were calculated therefrom.

Experiment [4] relates to PC-3. The experiment is described as follows: CCK-8 tumor cell proliferation, PC-3. The format is cell-based, Human. To be noted: PC-3, 96 h, read-out: IC50 for inhibiting the proliferation of tumor cells, PC-3. The procedure: as §1, §2, §3
Experiment [5] concerns DU-145. The experiment is described as follows: CCK-8 tumor cell proliferation, DU-145. The format is cell-based, Human. To be noted: DU-145, 96 h, read-out: IC50 for inhibiting the proliferation of tumor cells, DU-145. On the procedure:
as §1, §2, §3

The test system of experiment [6] is LNcap. Kind of experiment: CCK-8 tumor cell proliferation, LNcap. The format is cell-based, Human. To be noted: 96 h, read-out: IC50 for inhibiting the proliferation of tumor cells, LNcap. The procedure: as §1, §4, §5
Experiment [7] deals with Hep3B2.1-7. Kind of experiment: CCK-8 tumor cell proliferation, Hep3B2.1-7. The format is cell-based, Human. To be noted: Homo sapiens, Hep3B2.1-7, 96 h, read-out: IC50 for inhibiting the proliferation of tumor cells, Hep3B2.1-7. The procedure: as §1, §4, §5
Experiment [8] deals with Kasumi-1. Kind of experiment: CCK-8 tumor cell proliferation, Kasumi-1. The format is cell-based. To be noted: Homo sapiens, Kasumi-1, 72 h, read-out: IC50 for inhibiting the proliferation of tumor cells, Kasumi-1. On the procedure:
as §1, §2, §3

Where [9] appears, read: Homo sapiens, WSUDLCL2, WSU-DLCL2, 96 h.
Where [10] appears, read: Homo sapiens, MGC-803, MGC80-3, 96 h.

Chain of human Cereblon WT GST-tagged protein (Q96SW2 whole entry): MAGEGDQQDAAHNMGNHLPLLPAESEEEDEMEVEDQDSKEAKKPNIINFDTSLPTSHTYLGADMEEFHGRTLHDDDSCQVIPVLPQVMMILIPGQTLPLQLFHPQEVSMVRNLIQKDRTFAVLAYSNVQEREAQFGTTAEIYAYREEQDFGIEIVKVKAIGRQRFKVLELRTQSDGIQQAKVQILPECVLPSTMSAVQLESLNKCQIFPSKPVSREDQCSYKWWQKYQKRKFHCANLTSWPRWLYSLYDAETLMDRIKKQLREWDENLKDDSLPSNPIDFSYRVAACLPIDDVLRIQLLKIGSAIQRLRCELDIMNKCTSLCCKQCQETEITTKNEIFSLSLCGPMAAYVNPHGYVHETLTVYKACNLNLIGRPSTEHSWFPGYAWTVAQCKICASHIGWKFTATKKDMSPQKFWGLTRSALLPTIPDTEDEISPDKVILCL

In turn, `O=C1CCC(N2C(=O)c3ccc(N4CC5CC(C4)N5)cc3C2=O)C(=O)N1` (centres unmarked) [GT-03075, 5-(3,6-diazabicyclo[3.1.1]heptan-3-yl)-2-(2,6-dioxopiperidin-3-yl)isoindoline-1,3-dione] returned an IC50 in experiment [1] of 5090 nM.

`O=C1CCC(N2C(=O)c3ccc(N4CC5CCC4CN5)cc3C2=O)C(=O)N1` (centres unmarked) [GT-03076, 5-(2,5-diazabicyclo[2.2.2]octan-2-yl)-2-(2,6-dioxopiperidin-3-yl)isoindoline-1,3-dione] yielded an IC50 in experiment [1] of 650 nM.

In the case of `O=C1CCC(N2C(=O)c3ccc(N4CC5CCC(C4)N5)cc3C2=O)C(=O)N1` (centres unmarked) [GT-03077, 5-(3,8-diazabicyclo[3.2.1]octan-3-yl)-2-(2,6-dioxopiperidin-3-yl)isoindoline-1,3-dione], in experiment [1], the IC50 was determined as 5200 nM.

Consider `O=C1CCC(N2C(=O)c3ccc(N4C5CNCC4C5)cc3C2=O)C(=O)N1` (centres unmarked) [GT-03100, 5-(3,6-diazabicyclo[3.1.1]heptan-6-yl)-2-(2,6-dioxopiperidin-3-yl)isoindoline-1,3-dione], for which the IC50 in experiment [1] is 9800 nM.

Take `O=C1CCC(N2C(=O)c3cc(F)c(N4C5CNCC4C5)cc3C2=O)C(=O)N1` (centres unmarked) [GT-03106, 5-(3,6-diazabicyclo[3.1.1]heptan-6-yl)-2-(2,6-dioxopiperidin-3-yl)-6-fluoroisoindoline-1,3-dione]: the IC50 in experiment [1] was determined as 4040 nM.

In the case of `[2H]C1([2H])NC([2H])([2H])C([2H])([2H])N(c2cc3c(cc2F)C(=O)N(C2CCC(=O)NC2=O)C3=O)C1([2H])[2H]` (centres unmarked) [GT-03108, 2-(2,6-dioxopiperidin-3-yl)-5-fluoro-6-(piperazin-1-yl-2,2,3,3,5,5,6,6-d8)isoindoline-1,3-dione], the IC50 in experiment [1] was found to be 8750 nM.

In turn, `O=C1CCC(N2C(=O)c3cc(F)c(N4CC5CC(C4)N5)cc3C2=O)C(=O)N1` (centres unmarked) [GT-03109, 5-(3,6-diazabicyclo[3.1.1]heptan-3-yl)-2-(2,6-dioxopiperidin-3-yl)-6-fluoroisoindoline-1,3-dione] showed an IC50 in experiment [1] of 3550 nM.

The molecule `O=C1CCC(N2C(=O)c3ccc(N4C5CCC4CNC5)cc3C2=O)C(=O)N1` (centres unmarked) [GT-03210, 5-(3,8-diazabicyclo[3.2.1]octan-8-yl)-2-(2,6-dioxopiperidin-3-yl)isoindoline-1,3-dione] registered an IC50 in experiment [1] of 2690 nM.

Consider `O=C1CCC(N2C(=O)c3cc(F)c(N4C5CCC4CNC5)cc3C2=O)C(=O)N1` (centres unmarked) [GT-03211, 5-(3,8-diazabicyclo[3.2.1]octan-8-yl)-2-(2,6-dioxopiperidin-3-yl)-6-fluoroisoindoline-1,3-dione], for which, in experiment [1], the IC50 was 9800 nM.

For `N#Cc1ccc(OC2CCC(NC(=O)c3ccc(N4CCC(CN5CC6CC(C5)N6c5ccc6c(c5)C(=O)N(C5CCC(=O)NC5=O)C6=O)CC4)nn3)CC2)cc1Cl` (centres unmarked) [GT-03339, N-((1r,4r)-4-(3-chloro-4-cyanophenoxy)cyclohexyl)-6-(4-((6-(2-(2,6-dioxopiperidin-3-yl)-1,3-dioxoisoindolin-5-yl)-3,6-diazabicyclo[3.1.1]heptan-3-yl)methyl)piperidin-1-yl)pyridazine-3-carboxamide], the IC50 in experiment [2] (WSU-DLCL2, 96 h) was in the range of 100 to 500 nM; in experiment [3] (MGC80-3, 96 h) it was 50 to 100 nM; in experiment [4] it was 100 to 500 nM; in experiment [5], 100 to 500 nM; in experiment [6], 100 to 500 nM.

On to `CC1(C)[C@H](NC(=O)c2ccc(N3CCC(CN4C5CCC4CN(c4ccc6c(c4)C(=O)N(C4CCC(=O)NC4=O)C6=O)C5)CC3)nn2)C(C)(C)[C@H]1Oc1ccc(C#N)c(Cl)c1` (some centres unmarked) [GT-03399, N-((1r,3r)-3-(3-chloro-4-cyanophenoxy)-2,2,4,4-tetramethylcyclobutyl)-6-(4-((3-(2-(2,6-dioxopiperidin-3-yl)-1,3-dioxoisoindolin-5-yl)-3,8-diazabicyclo[3.2.1]octan-8-yl)methyl)piperidin-1-yl)pyridazine-3-carboxamide], for which the IC50 in experiment [2] (setting [9]) was 500 to 1000 nM; in experiment [4] (Homo sapiens) it was 100 to 500 nM; in experiment [7] it was 100 to 500 nM; in experiment [5] (Homo sapiens) it was 100 to 500 nM; in experiment [6] (Homo sapiens), 100 to 500 nM.

`CC1(C)[C@H](NC(=O)c2ccc(N3CCC(CN4CC5CC(C4)N5c4ccc5c(c4)C(=O)N(C4CCC(=O)NC4=O)C5=O)CC3)nn2)C(C)(C)[C@H]1Oc1ccc(C#N)c(Cl)c1` (some centres unmarked) [GT-03400, N-((1r,3r)-3-(3-chloro-4-cyanophenoxy)-2,2,4,4-tetramethylcyclobutyl)-6-(4-((6-(2-(2,6-dioxopiperidin-3-yl)-1,3-dioxoisoindolin-5-yl)-3,6-diazabicyclo[3.1.1]heptan-3-yl)methyl)piperidin-1-yl)pyridazine-3-carboxamide]: the IC50 in experiment [2] (setting [9]) is 500 to 1000 nM; in experiment [3] (setting [10]), 100 to 500 nM; in experiment [4] (Homo sapiens), 100 to 500 nM; in experiment [5] (Homo sapiens) it was 100 to 500 nM; in experiment [6] (Homo sapiens) it was 100 to 500 nM.

Regarding `CC1(C)[C@H](NC(=O)c2ccc(N3CCC(CN4C5CC4CN(c4ccc6c(c4)C(=O)N(C4CCC(=O)NC4=O)C6=O)C5)CC3)nn2)C(C)(C)[C@H]1Oc1ccc(C#N)c(Cl)c1` (some centres unmarked) [GT-03401, N-((1r,3r)-3-(3-chloro-4-cyanophenoxy)-2,2,4,4-tetramethylcyclobutyl)-6-(4-((3-(2-(2,6-dioxopiperidin-3-yl)-1,3-dioxoisoindolin-5-yl)-3,6-diazabicyclo[3.1.1]heptan-6-yl)methyl)piperidin-1-yl)pyridazine-3-carboxamide], the IC50 was in the range of 1000 to 5000 nM in experiment [2] (setting [9]); 100 to 500 nM in experiment [3] (setting [10]); 100 to 500 nM in experiment [4] (Homo sapiens); 500 to 1000 nM in experiment [5] (Homo sapiens); 500 to 1000 nM in experiment [6] (Homo sapiens).

With `CC1(C)[C@H](NC(=O)c2ccc(N3CCC(CN4CC5CC(C4)N5c4cc5c(cc4F)C(=O)N(C4CCC(=O)NC4=O)C5=O)CC3)nc2)C(C)(C)[C@H]1Oc1ccc(C#N)c(Cl)c1` (some centres unmarked) [GT-03403, N-((1r,3r)-3-(3-chloro-4-cyanophenoxy)-2,2,4,4-tetramethylcyclobutyl)-6-(4-((6-(2-(2,6-dioxopiperidin-3-yl)-6-fluoro-1,3-dioxoisoindolin-5-yl)-3,6-diazabicyclo[3.1.1]heptan-3-yl)methyl)piperidin-1-yl)nicotinamide], the IC50 in experiment [2] (setting [9]) was in the range of 5000 to 10000 nM; in experiment [3] (setting [10]), 500 to 1000 nM; in experiment [4] (Homo sapiens), 100 to 500 nM; in experiment [5] (Homo sapiens), 100 to 500 nM; in experiment [6] (Homo sapiens) it was 500 to 1000 nM.

Take `Cc1nc(Nc2ncc(C(=O)Nc3c(C)cccc3Cl)s2)cc(N2CCC(CN3CC4CC(C3)N4c3cc4c(cc3F)C(=O)N(C3CCC(=O)NC3=O)C4=O)CC2)n1` (centres unmarked) [GT-03628, N-(2-chloro-6-methylphenyl)-2-((6-(4-((6-(2-(2,6-dioxopiperidin-3-yl)-6-fluoro-1,3-dioxoisoindolin-5-yl)-3,6-diazabicyclo[3.1.1]heptan-3-yl)methyl)piperidin-1-yl)-2-methylpyrimidin-4-yl)amino)thiazole-5-carboxamide]: the IC50 in experiment [8] is 100 to 500 nM.

The record behind these values is patent US20250243210A1, “CRBN E3 LIGASE LIGAND COMPOUND, PROTEIN DEGRADER DEVELOPED BASED THEREON AND THEIR APPLICATIONS” (GLUETACS THERAPEUTICS (SHANGHAI) CO., LTD., priority 2021, published 2025).
